Data published in PubChem BioAssay AID1845195 (Molecular Pharmacology Branch, DTP, NCI, 2023).

Test system: 156681-154-R-J1 tumor spheroid viability
Assay: Anticancer human tumor 156681-154-R-J1 patient-derived melanoma cell line growth inhibition
Conditions: spheroids with HUVEC and MSC; for IC50: curve of first compound; for viability, T/C: stronger effect = lower value
Source text: Multicellular complex tumor spheroid response to DNA repair inhibitors in combination with DNA-damaging drugs
This study explores the anticancer activities of DNA-damaging drugs and inhibitors of DNA damage repair, both as single agents and in combinations. Complex tumor spheroids comprised of malignant cells, endothelial cells and mesenchymal stem cells served as an in vitro model for human solid tumors. This model system incorporates physiologically relevant features and patient-derived or established malignant cell lines with clinically relevant genetic alterations from many tumor types. Twenty-six patient-derived or established malignant cell lines were evaluated representing sarcoma, melanoma, small cell lung cancer (SCLC), non-small cell lung cancer (NSCLC), as well as bladder, ovarian and pancreatic cancers. The concentration ranges selected for each drug and investigational agent were based upon clinically achievable concentrations if the clinical Cmax of the agent was known.
Compounds. The drugs and compounds olaparib (NSC753686), talazoparib (NSC767125), berzosertib (NSC777718), elimusertib (NSC800525), nedisertib (NSC802822), VX-984 (NSC792969), AZD-1390 (NSC803789), temozolomide (NSC362856), topotecan (NSC609699), trabectedin (NSC813783), staurosporine (NSC755774), and gemcitabine (NSC613327) were obtained from the National Cancer Institute (NCI) Developmental Therapeutics Program Chemical Repository. The FDA-approved anticancer drug set is available from the Developmental Therapeutics Program at https://dtp.cancer.gov/organization/dscb/obtaining/available_plates.htm. […] The stock solutions were prepared in dimethyl sulfoxide (DMSO, Sigma-Aldrich, St. Louis, MO, cat. D2650) at 400-fold the tested concentration and stored at -70 degrees C. Prior to their use, the stock solutions were diluted in fresh medium and the final DMSO concentration in the assay was 0.25% (v/v). All drugs and investigational agents were tested over a range starting from a high concentration at or near the clinical Cmax and decreasing in half-log increments. If the clinical Cmax for an agent had not been determined, the highest concentration tested was 10 microM.
Cell Lines. The patient-derived cancer cell (PDC) lines: 156681-154-R-J1-PDC, 283228-195-R-J1-PDC, 287954-098-R-J1-PDC, 292921-168-R-J2-PDC, 349418-098-R-PDC, 425362-245-T-J1-PDC, 556581-035-R-J1-PDC, and BL0293-F563-PDC were received from the NCI Patient-Derived Models Repository (PDMR, https://pdmr.cancer.gov). The established cell lines HS-SY-2 (RRID:CVCL_8719), MPNST, and SYO-1 (RRID:CVCL_7146) were obtained from the Sloan Kettering Institute. The alveolar soft parts sarcoma cell line ASPS-1 (RRID:CVCL_S738) was established at the NCI and grown from internal seed stocks. The following established cell lines were purchased from the American Type Culture Collection (ATCC, Manassas, VA): G-401 (ATCC, cat. CRL-1441, RRID:CVCL_0270), SW982 (ATCC, cat. HTB-93, RRID:CVCL_1734), VA-ES-BJ (ATCC, cat. CRL-2138, RRID:CVCL_1785), NCI-H719 (ATCC, cat. CRL-5837, RRID:CVCL_1582), NCI-H196 (ATCC, cat. CRL-5823, RRID:CVCL_1509), NCI-H841 (ATCC, cat. CRL-5845, RRID:CVCL_1595), NCI-H1618 (ATCC, cat. CRL-5879, RRID:CVCL_1480), NCI-H1876 (ATCC, cat. CRL-5902, RRID:CVCL_1503), DMS 114 (ATCC, cat. CRL-2066; RRID:CVCL_1174), NCI-H211 (ATCC, cat. CRL-5824; RRID:CVCL_1529), and SW 1271 (ATCC, cat. CRL-2177, RRID:CVCL_1716). The small cell lung cancer cell line COR-L88 was purchased from Sigma-Aldrich (cat. 92031917-1VL, RRID:CVCL_1141). The non-small cell lung cancer cell lines NCI-H226 (RRID:CVCL_1544) and NCI-H322M (RRID:CVCL_1557) were established at the NCI and grown from internal seed stocks. Pooled donor human umbilical vein endothelial cells (HUVEC, Lonza, cat. CC-2519) and human mesenchymal stem cells (hMSC, Lonza, cat. PT-2501) were purchased from Lonza (Walkersville, MD).
Cell Culture. All cells were maintained in an incubator at 37 degrees C and 5% CO2 with 95% humidity. […]

[1] = second compound 0.003 µM, first compound 0.00949 µM
[2] = second compound 0.003 µM, first compound 0.03 µM
[3] = second compound 0.003 µM, first compound 0.0949 µM
[4] = second compound 0.003 µM, first compound 0.3 µM
[5] = second compound 0.003 µM, first compound 0.949 µM
[6] = second compound 0.003 µM, first compound 3 µM
[7] = second compound 0.00949 µM, first compound 0.00949 µM
[8] = second compound 0.00949 µM, first compound 0.03 µM
[9] = second compound 0.00949 µM, first compound 0.0949 µM
[10] = second compound 0.00949 µM, first compound 0.3 µM
[11] = second compound 0.00949 µM, first compound 0.949 µM
[12] = second compound 0.00949 µM, first compound 3 µM
[13] = second compound 0.03 µM, first compound 0.00949 µM
[14] = second compound 0.03 µM, first compound 0.03 µM
[15] = second compound 0.03 µM, first compound 0.0949 µM
[16] = second compound 0.03 µM, first compound 0.3 µM
[17] = second compound 0.03 µM, first compound 0.949 µM
[18] = second compound 0.03 µM, first compound 3 µM
[19] = second compound 0.0949 µM, first compound 0.00949 µM
[20] = second compound 0.0949 µM, first compound 0.03 µM
[21] = second compound 0.0949 µM, first compound 0.0949 µM
[22] = second compound 0.0949 µM, first compound 0.3 µM
[23] = second compound 0.0949 µM, first compound 0.949 µM
[24] = second compound 0.0949 µM, first compound 3 µM
[25] = second compound 0.3 µM, first compound 0.00949 µM
[26] = second compound 0.3 µM, first compound 0.03 µM
[27] = second compound 0.3 µM, first compound 0.0949 µM
[28] = second compound 0.3 µM, first compound 0.3 µM
[29] = second compound 0.3 µM, first compound 0.949 µM
[30] = second compound 0.3 µM, first compound 3 µM
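Further: spheroids exposed to compounds for 7 days before readout.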
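Wherever viability, T/C is given: percent of vehicle control viability where 100% = DMSO-treated spheroids.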

Compound | IC50 (second compound 0.003 µM) [nM] | IC50 (second compound 0.00949 µM) [nM] | IC50 (second compound 0.03 µM) [nM] | IC50 (second compound 0.0949 µM) [nM] | IC50 (second compound 0.3 µM) [nM] | viability, T/C [1] [%] | viability, T/C [2] [%] | viability, T/C [3] [%] | viability, T/C [4] [%] | viability, T/C [5] [%] | viability, T/C [6] [%] | viability, T/C [7] [%] | viability, T/C [8] [%] | viability, T/C [9] [%] | viability, T/C [10] [%] | viability, T/C [11] [%] | viability, T/C [12] [%] | viability, T/C [13] [%] | viability, T/C [14] [%] | viability, T/C [15] [%] | other results
CNCc1ccc(-c2cc(-c3nc(-c4ccc(S(=O)(=O)C(C)C)cc4)cnc3N)on2)cc1 + CC[C@@]1(O)C(=O)OCc2c1cc1n(c2=O)Cc2cc3c(CN(C)C)c(O)ccc3nc2-1 | 733 | 451 | 296 | < 9.49 | < 9.49 | 103 | 93.6 | 82.1 | 65.2 | 46.8 | 20.3 | 136 | 92.3 | 73.8 | 58.8 | 46.8 | 7.92 | 66 | 60.1 | 60.1 | viability, T/C [16]: 50.4%; viability, T/C [17]: 27.5%; viability, T/C [18]: 7.5%; viability, T/C [19]: 17.7%; viability, T/C [20]: 19.3%; viability, T/C [21]: 24.2%; viability, T/C [22]: 14.5%; viability, T/C [23]: 12.8%; viability, T/C [24]: 0.15%; viability, T/C [25]: 31.1%; viability, T/C [26]: 26.9%; viability, T/C [27]: 24.2%; viability, T/C [28]: 24.2%; viability, T/C [29]: 14.8%; viability, T/C [30]: 10%
Cc1sc2c(c1C)C(c1ccc(Cl)cc1)=NC(CC(=O)Nc1ccc(O)cc1)c1nnc(C)n1-2 (stereo not given) + CC[C@@]1(O)C(=O)OCc2c1cc1n(c2=O)Cc2cc3c(CN(C)C)c(O)ccc3nc2-1 | 1460 | 1960 | 78.6 | < 9.49 | < 9.49 | 155 | 103 | 81.1 | 70 | 61.1 | 47.4 | 68.4 | 88.6 | 82.6 | 75.4 | 62.4 | 42.8 | 50.1 | 54.9 | 51.3 | viability, T/C [16]: 39%; viability, T/C [17]: 29.8%; viability, T/C [18]: 19.1%; viability, T/C [19]: 22.5%; viability, T/C [20]: 21.8%; viability, T/C [21]: 21%; viability, T/C [22]: 22.5%; viability, T/C [23]: 24.6%; viability, T/C [24]: 24.4%; viability, T/C [25]: 33.2%; viability, T/C [26]: 29.1%; viability, T/C [27]: 31.1%; viability, T/C [28]: 24.8%; viability, T/C [29]: 25.4%; viability, T/C [30]: 16.5%
